Reference: PMC10991105 (Bioresources and Bioprocessing, 2024)

Molecular target: T1, tyrosinase
T1 construct: gene PPO1; tyrosinase of unstated source and supplier
Test: L-tyrosine oxidation, absorbance at […] nm
Format: biochemical
Settings: L-tyrosine substrate (0.1 mg/mL stock, 40 μL in 200 μL); PBS; 37 °C; 30 min

With `CCCCCCCCCCCC(=O)OC[C@H]1O[C@H](Oc2ccc(O)cc2)[C@H](O)[C@@H](O)[C@@H]1O` [6′-O-lauroylarbutin] the IC50 was 35 µM.
